The values that follow come from patent publication US4461724A, “Peptide compounds, a process for manufacturing them, pharmaceutical compositions containing them, and methods for treating ulcer and thrombus with them” (Nippon Zoki Pharmaceutical Co., Ltd., priority 1981, dated 1984).

Square brackets hold non-standard residues; d marks the D form. Peptide text beside a SMILES is read from it. pGlu = O=C1CC[C@@H](C(=O)O)N1 Bounds are passed on as bounds.

Assay [1] concerns ADP Induced Hemagglutination. Nature of the assay: Antithrombotic effect (I): ADP induced hemagglutination in plasma of dosed rats. The class given is in vivo, Wister strain male rats. To be noted: ADP as coagulant; for Transmittance: mean ± S.E., control 62.9 ± 6.3. The procedure: (§1) Groups each consisting of 10 Wister strain male rats (120-160 g) were administered with the drug to be tested through the tail vein, and 5 minutes later, blood was taken under etherized conditions at a ratio to 3.8% aqueous sodium citrate solution of 1/10. This was centrifugally separated into platelet rich plasma (PRP) and platelet poor plasma (PPP). Using ADP or collagen as the coagulant, the reaction was effected at 37° C. The transmittance of the plasma with the coagulant and drug to be tested was measured using PRP and PPP as the standards, compared with the control, and the percent inhibition was calculated. As the comparative drug, ticlopidine was orally administered.

The test system of assay [2] is Collagen Induced Hemagglutination. In words: Antithrombotic effect (I): collagen induced hemagglutination in plasma of dosed rats. The class given is in vivo, Wister strain male rats. To be noted: collagen as coagulant; for Transmittance: mean ± S.E., control 52.5 ± 7.1. As to the method: as §1
Assay [3] has as its system acetic acid-induced ulcer in rats. Nature of the assay: Acetic acid-induced (chronic) ulcer inhibiting effect. To be noted: once a day for 10 days. In kind it is in vivo. The procedure:
The effect of the peptide compound of this invention on chronic ulcer was examined according to the method by Takagi et al. [Takagi, K. et al., Japan J. Pharmacol., 19, 418 (1970)]. That is, 0.025 ml of 30% acetic acid was injected to the stomach serous membrane in rats, and for 10 days thereafter, the peptide compound of this invention (Compound 25) was intravenously administered once a day. Gefarnate and secretin both employed as the comparative drugs were similarly intramuscularly administered (i.m.).

For assay [4], the system named is histamine-induced ulcer in rats. In words: Histamine-induced ulcer inhibiting effect (Table 1). In kind it is in vivo, Wister strain male rats. The settings on record: histamine dihydrochloride 300 mg/kg i.p., 4 hours; for Ulcer coefficient (total surface area of ulcer lesion): mean ± S.E., control 28.4 ± 3.2. As to the method: Groups each consisting of 10 Wister strain male rats (120-130 g) were starved for 24 hours, and the drug to be tested were intravenously administered (i.v.). Immediately thereafter, according to the method by Bucher et al. [Bucher, F. et al., Beitr. Path. Anat. 81, 391 (1928)], 300 mg/kg of histamine dihydrochloride was administered intraperitoneally (i.p.). Four hours later, each animal was decapitated to bleed, and the stomach was removed. 6 ml of physiological saline was infused into the removed stomach, which was then dipped in 10% formalin for 10 minutes. Then, the stomach was incised along the greater curvature. The ulcer appeared on the stomach mucous membrane was observed on a stereoscopic microscope to measure the surface area of the ulcer lesion, and the total area was designated as the ulcer coefficient.

Assay [5] deals with restraint and water immersion stress ulcer in rats. Nature of the assay: (A) Restraint and water immersion stress ulcer inhibiting effect. In kind it is in vivo. The settings on record: stress 25° C., 4 hours, drug once before stress. As to the method: (§2) The peptide compound of this invention (Compound 25) and cimetidine and atropine both employed as the comparative drugs were intravenously administered.
According to the method by Takagi et al. [Takagi, K. et al., Chem. Pharm. Bull., 12, 465 (1964)], the effect on the ulcer in rats induced by stress due to restraint and immersing in water in wire cages (25° C., 4 hours) was examined. The drugs to be tested were administered once before loading the stress.

The subject of assay [6] is aspirin-induced ulcer in rats. In words: (B) Aspirin-induced ulcer inhibiting effect. The class given is in vivo. The settings on record: drug once before oral aspirin 200 mg/kg. The procedure: 4. […] According to the method by Brodie et al. [Brodie, D. A. & Chase, B. J., Gastroenterology, 53, 604 (1967)], the drug to be tested was orally administered to rats once before the oral administration of 200 mg/kg of aspirin.

Assay [7] concerns histamine-induced ulcer in rats. In words: (C) Histamine-induced ulcer inhibiting effect (ID50). The class given is in vivo. The settings on record: drug once before histamine 300 mg/kg. The procedure: 4. […] According to the method by Bucher et al. [ Bucher, F. et al., Beitr. Path. Anat., 81, 391 (1928)], the drug to be tested was intraperitoneally administered to rats once before the oral administration of 300 mg/kg of histamine.

The test system of assay [8] is cortisone-induced ulcer in rats. In words: (D) Cortisone-induced ulcer inhibiting effect. The class given is in vivo. The settings on record: starved rats, cortisone acetate 20 mg/kg s.c. and drug once a day for 4 days. The procedure:
as §2
According to the method by Robert et al. [Robert, A & Nezamis, J. E., Proc. Soc. Exptl. Biol. Med., 99, 443 (1958)], rats were starved, and 20 mg/kg of cortisone acetate was subcutaneously administered once a day for 4 days to induce ulcer. The drug to be tested was also administered simultaneously with the cortisone acetate once a day for 4 days.

The subject of assay [9] is cysteamine-induced duodenal ulcer in rats. In words: (E) Cysteamine-induced duodenal ulcer inhibiting effect. The class given is in vivo. To be noted: drug once before cysteamine hydrochloride 400 mg/kg. As to the method: as §2
According to the method by Robert at al. [Robert, H. et al., Digestion, 11, 199 (1974)], 400 mg/kg of cysteamine hydrochloride was administered to rats to induce duodenal ulcer. The drug to be tested was administered once before the administration of the cysteamine.

The test system of assay [10] is pylorus ligation ulcer in rats. Nature of the assay: Pylorus ligation ulcer inhibiting effect. To be noted: 1 mg/kg i.p., 18 hours after pylorus ligation, mean ± S.E., control 4.5 ± 0.3. In kind it is in vivo, Wister strain male rats. The procedure:
Groups each consisting of 10 Wister strain male rats were starved for 24 hours, and the pylorus was ligatured under etherized conditions. The peptide compound of this invention (Compound 25) was intraperitoneally administered. Eighteen hours later, the stomach was removed and cut open. The ulcer appeared on the rumen was evaluated using 6-ranked ulcer index according to the method by Narumi et al. [A. Narumi, et al., J. Takeda Res. Lab., 29, 85 (1970)].

For assay [11], the system named is thrombus on silk thread in extracorporeal shunt of rats. In words: Antithrombotic effect (II): extracorporeal shunt with silk thread, thrombus wet weight. In kind it is in vivo, Wister strain male rats. The settings on record: 20 minute circulation; for Thrombosis wet weight: mean ± S.E., control 38.1 ± 3.4. As to the method: The present pharmacological test was conducted according to the method by T. Umetsu et al. [Thrombosis and Haemostasis, 39, 74-83 (1978)]. Groups each consisting of 10 Wister strain male rats were anesthetized by intraperitoneal administration of 50 mg/kg of sodium pentobarbital. An extracorporeal shunt prepared by connecting cannula polyethylene tubes to both ends of a polyethylene tube into which a silk thread had been inserted was filled with heparin, the both ends were then inserted into the dissected and exposed left jugular vein and right carotid artery. Thereafter, blood circulation was started. The drug to be tested was intravenously administered one minute before the start of blood circulation. Aspirin was orally administered as a comparative drug. After 20 minute blood circulation, the wet weight of the thrombus coated to the silk thread was weighed, and the inhibition rate was calculated.

[12] abbreviates: 10 mg/kg via tail vein, blood taken 5 minutes later.
Where [13] appears, read: 1 mg/kg i.v. one minute before circulation.
The mark [14] stands for this setting: 10 mg/kg i.v. one minute before circulation.

Turning to `Clc1ccccc1CN1CCc2sccc2C1` [Thichlopidine, ticlopidine], the Transmittance is listed as 41.6 ± 10.4 in [1] (100 mg/kg orally) and 34.6 ± 10.8 in assay [2] (100 mg/kg orally). For the same compound, the inhibition (usually the drop in the measured response relative to a control, in per cent) at 100 mg/kg in assay [1] (Rattus norvegicus, po, 100 mg/kg orally, read-out: Inhibition Rate (%)) turned out to be 33.9%; in assay [2] (Rattus norvegicus, po, 100 mg/kg orally, read-out: Inhibition rate (%)) it was 34.1%.
Take `CC(C)=CCC/C(C)=C/CC/C(C)=C/CCC(=O)OC/C=C(\C)CCC=C(C)C` [Gefarnate]: in [3] (intramuscular), the “ID50 acetic acid-induced ulcer” value is listed as 250 mg/kg, i.m.
`NCCCC[C@H](NC(=O)[C@H](Cc1c[nH]cn1)NC(=O)[C@H](CO)NC(=O)[C@@H]1CCC(=O)N1)C(=O)O` [Compound 28, (pyr)Glu-Ser-His-Lys] ([pGlu]SHK-OH): in [4] (20 mg/kg i.v.), the “Inhibition rate (%)” value is 57.0% and the “Ulcer coefficient (total surface area of ulcer lesion)” value (“Ulcer coefficient” for short) was found to be 12.2 ± 2.6. Besides, in assay [1] (setting [12]), the “Inhibition rate (%)” value is on record as 57.9% and the Transmittance is recorded as 26.5 ± 7.2.
In the case of `CN1[C@@H]2CC[C@H]1C[C@@H](OC(=O)C(CO)c1ccccc1)C2` (stereo partly drawn) [Atropine, atropine], the “ID50 (A) restraint and water immersion stress ulcer” value in assay [5] is recorded as 0.4 mg/kg, i.v. In addition, in [6], the “ID50 (B) aspirin-induced ulcer” value was 0.52 mg/kg, i.v. The “ID50 (C) histamine-induced ulcer” value in [7] is recorded as 0.35 mg/kg, i.v. The “ID50 (D) cortisone-induced ulcer” value in assay [8] is 0.25 mg/kg, i.v. Moreover, the “ID50 (E) cysteamine-induced duodenal ulcer” value in assay [9] is reported as 0.35 mg/kg, i.v.
As for `CN/C(=N/CCSCc1nc[nH]c1C)NC#N` [Cimetidine, cimetidine], the “Ulcer coefficient” value in assay [4] (25 mg/kg i.v.) is recorded as 10.9 ± 1.9. In addition, the inhibition at 25 mg/kg in assay [4] (Rattus norvegicus, 25 mg/kg i.v., read-out: Inhibition rate (%)) came to 61.6%. Also, in [5], the “ID50 (A) restraint and water immersion stress ulcer” value is reported as 37.0 mg/kg, i.v. The “ID50 (B) aspirin-induced ulcer” value in assay [6] was 39.0 mg/kg, i.v. Also, in assay [7], the “ID50 (C) histamine-induced ulcer” value is recorded as 17.0 mg/kg, i.v. The “ID50 (D) cortisone-induced ulcer” value in [8] was 28.0 mg/kg, i.v. In assay [9], the “ID50 (E) cysteamine-induced duodenal ulcer” value was 26.0 mg/kg, i.v.
Regarding `NCCCC[C@H](NC(=O)[C@H](Cc1c[nH]cn1)NC(=O)[C@H](CO)NC(=O)CN)C(=O)O` [Compound 25, Gly-Ser-His-Lys.CH3 COOH.H2 O] (H-GSHK-OH), the “Inhibition rate (%)” value in assay [4] (20 mg/kg i.v.) is on record as 79.9%; in [2] (10 mg/kg) it was 71.8%; in assay [11] (setting [13]) it was 27.3%; in assay [11] (setting [14]) it was 44.1%. In addition, in assay [4] (20 mg/kg i.v.), the “Ulcer coefficient” value is recorded as 5.7 ± 2.6. In assay [10], the “Ulcer index (6-ranked)” value is reported as 3.1 ± 0.5. Further, the “ID50 (A) restraint and water immersion stress ulcer” value in assay [5] is reported as 4.2 mg/kg, i.v. Moreover, in assay [6], the “ID50 (B) aspirin-induced ulcer” value is recorded as 5.0 mg/kg, i.v. Moreover, the “ID50 (C) histamine-induced ulcer” value in assay [7] is recorded as 6.0 mg/kg, i.v. Besides, in assay [8], the “ID50 (D) cortisone-induced ulcer” value is 1.85 mg/kg, i.v. For the same compound, the “ID50 (E) cysteamine-induced duodenal ulcer” value in [9] is 5.0 mg/kg, i.v. Further, in [3] (intravenous), the “ID50 acetic acid-induced ulcer” value is 1.0 mg/kg, i.v. The compound further registered a Transmittance in [2] (10.0 mg/kg via tail vein, 10 mg/kg) of 14.8 ± 4.9. In addition, the “Thrombosis wet weight” value was 27.7 ± 4.0 mg in assay [11] (setting [13]) and 21.3 ± 3.3 mg in [11] (setting [14]).
With `CC(=O)Oc1ccccc1C(=O)O` [Aspirin], in [11] (100 mg/kg orally), the “Thrombosis wet weight” value stood at 22.3 ± 3.2 mg. In addition, the inhibition at 100 mg/kg in assay [11] (Rattus norvegicus, po, 20 min, 100 mg/kg orally, read-out: Inhibition rate (%)) came out at 41.5%.
Regarding secretin, the “ID50 acetic acid-induced ulcer” value in [3] (intramuscular) was > 100 U/kg, i.m.
